Consider 1 molecule from patent publication US20250212902A1, “METHOD AND COMPOSITION FOR IMPROVEMENT OF AGRICULTURAL PRODUCE” (UPL CORPORATION LIMITED, priority 2022, published 2025).

Test [1] concerns grape. The experiment in a line: Post-harvest bunch weight in grape (Example 7). As to conditions: 19 days after harvest, Example 7 Trial 2. It counts as in vivo. The protocol: (§1) 10 applications […] were performed with an interval of 3 days with the 1st application being at inflorescence stage (BBCH 53). Severity of disease was evaluated in at least 20 leaves/plot, prior evaluation was performed before the first application, at 3 days after each application and at 7 and 10 days after the last application. Phytotoxicity (0 to 100%) was evaluated before each spray and at 3 days after each application. Post-harvest bunch weight was evaluated at 19 days after harvest. Control of powdery mildew was recorded as % control. Yield was evaluated as Kg/ha. Post-harvest bunch weight was recorded as g/bunch. […] 10 applications […] were performed with an interval of 3 days with the 1st application being at inflorescence stage (BBCH 53). Severity of disease was evaluated in at least 20 leaves/plot, prior evaluation was performed before the first application, at 3 days after each application and at 7 and 10 days after the last application. Phytotoxicity (0 to 100%) was evaluated before each spray and at 3 days after each application. Post-harvest bunch weight was evaluated at 19 days after harvest. Control of powdery mildew was recorded as % control. Post-harvest bunch weight was recorded as g/bunch.

The test system of test [2] is powdery mildew (Uncinula necator). Description: Control of powdery mildew in grape. It is filed as in vivo. As to conditions: Example 7 Trial 2, 10 applications, 3 day interval. The method, then: as §1

Molecules are shown by their SMILES.

On to `O=C([O-])O.[K+]` [Potassium bicarbonate, potassium bicarbonate], for which the “Post-harvest bunch weight (g/bunch)” value in test [1] is reported as 420.3 g/bunch. Moreover, in test [2], the “% Control of Uncinula necator” value stood at 67.7%.
